In patent publication US20200362174A1, “COMPOUNDS AND METHODS FOR OPTICAL SENSING OF ELECTRICAL ACTIVITY IN BIOLOGICAL SYSTEMS” (UNIVERSITY OF CONNECTICUT, priority 2018, published 2020):
Several values for one entry are separate records, joined by “and”; a condition that tells them apart may be missing. Equal values may be shown once. Entries after “also recorded” stand apart in the source; their conditions may differ. Where a name gives a salt, the structure may show the parent alone.

How the values were obtained:
[1] = voltage sensitivity testing on the voltage clamped hemispherical lipid bilayer (HLB) apparatus
[2] = water solubility / deliverability to membranes (in words); format: physicochemical; conditions: delivery to the membrane

| Compound | voltage sensitivity / voltage dependence in words [1] | ΔF/F per 100 mV in Dynamic Range (mV) ([1]; dynamic range [−100, 0] mV) | τ-off [1] | τ-on [1] | other results |
| --- | --- | --- | --- | --- | --- |
| CCCCN(CCCC)c1ccc2cc(C=Cc3cc[n+](CCCS(=O)(=O)[O-])cc3)ccc2c1 [Di-4-ANEPPS, 4-(2-(6-(dibutylamino)-2-naphthalenyl)ethenyl)-1-(3-sulfopropyl)pyridinium hydroxide inner salt, reference compound] | approximately linear voltage dependence |  |  |  | voltage sensitivity ([1]; approximately linear over a broad range of applied voltage): 12 %/100 mV |
| CN(CCCCCCCCCCCCNC(=O)CCCCCCCCCCCNC(=O)COCCOCCNC(=O)CCc1c([N+](=O)[O-])cc([N+](=O)[O-])c([N-]c2c([N+](=O)[O-])cc([N+](=O)[O-])cc2[N+](=O)[O-])c1[N+](=O)[O-])c1ccc2cc(/C=C/c3cc[n+](CCOCCOCCO)cc3)ccc2c1 [PY6242] |  |  |  |  | solubility in words [2]: Low solubility |
| CN(CCCCCCCCCCCCNC(=O)CCCCCCCCCCCNC(=O)CCc1c([N+](=O)[O-])cc([N+](=O)[O-])c(Nc2c([N+](=O)[O-])cc([N+](=O)[O-])cc2[N+](=O)[O-])c1[N+](=O)[O-])c1ccc2cc(/C=C/c3cc[n+](CCCCS(=O)(=O)[O-])cc3)ccc2c1 [PY6256] |  | 24% |  |  | ΔF/F per 100 mV in Dynamic Range (mV) ([1]; dynamic range [0, 100] mV): 39% |
| CC[N+](CC)(CC)CCC[n+]1ccc(/C=C/c2ccc3cc(N(C)CCCCCCCCCCCCNC(=O)CCCCCCCCCCCNC(=O)CCc4c([N+](=O)[O-])cc([N+](=O)[O-])c(Nc5c([N+](=O)[O-])cc([N+](=O)[O-])cc5[N+](=O)[O-])c4[N+](=O)[O-])ccc3c2)cc1 [TBFQ 15] |  |  |  |  | ΔF/F per 100 mV ([1]; no dynamic range printed, electrochromic behavior): 8% and 8 ± 3% |
| CC[N+](CC)(CC)CCC[n+]1ccc(/C=C/c2ccc3cc(N(C)CCOCCOCCNC(=O)CCCCCCCCCCCNC(=O)COCCOCCNC(=O)CCc4c([N+](=O)[O-])cc([N+](=O)[O-])c(Nc5c([N+](=O)[O-])cc([N+](=O)[O-])cc5[N+](=O)[O-])c4[N+](=O)[O-])ccc3c2)cc1 [TBFQ 16] | high voltage sensitivity |  | 5 ± 1 ms | 11 ± 2 ms | change in fluorescence/100 mV ([1]; […], dye on the inside, 20 ms voltage steps): 36%; ΔF/F per 100 mV in Dynamic Range (mV) ([1]; dynamic range [−200, −100] mV): 56 ± 13% |
| CC[N+](CC)(CC)CCC[n+]1ccc(/C=C/c2ccc3cc(N(C)CCCCCCCCCCCCNC(=O)CCCCCCCCCCCNC(=O)COCCOCCNC(=O)CCc4c([N+](=O)[O-])cc([N+](=O)[O-])c(Nc5c([N+](=O)[O-])cc([N+](=O)[O-])cc5[N+](=O)[O-])c4[N+](=O)[O-])ccc3c2)cc1 [TBFQ 17] | better sensitivity than TBFQ 16; also recorded: responses in the physiological range that are larger than any previous fast VSDs | 66 ± 15% | 7 ± 2 ms | 12 ± 2 ms |  |
